Experimental data published in patent publication US10647747B2, “Cyclosporin derivatives and uses thereof” (S&T Global Inc., priority 2010, dated 2020).
*1 amine or outer side, *2 acyl side, *3 side chain or, on linkers, in order; H or OH if unused. Where a SMILES comes first, the peptide text is derived from it. [ ]: non-standard residue; d: D form. The star is where a group is joined. MeBmt = C/C=C/C[C@@H](C)[C@@H](O)[C@H](NC)C(=O)O; X15 = CSCOC(C)(C)C[C@@H](C(=O)[*:2])N(C)[*:1]; X3 = CC=CCC(C)C(O)C(C(=O)[*:2])N(C)[*:1]; X7 = CN(C(SCCCN1CCOCC1)C(=O)[*:2])[*:1]; NMeL = CN[CH](CC(C)C)C(=O)O; NMeV = CN[CH](C(=O)O)C(C)C; dNMeC = CN[C@H](CS)C(=O)O; Et2NCH2CH2 = CCN(CC)CC*; Abu = CC[CH](N)C(=O)O

System: HCV replicon in cell line ET (luc-ubi-neo/ET), Huh7 human hepatoma
Test: HCV subgenomic replicon assay, luciferase end point
Assay type: cell-based
Settings: HCV subgenomic replicon, cell line ET (luc-ubi-neo/ET) Huh7, luciferase end point; read-out: Antiviral activity EC50

`C/C=C/C[C@@H](C)[C@@H](O)[C@H]1C(=O)N[C@@H](CC)C(=O)N(C)[C@H](CSCCCN(CC)CC)C(=O)N(C)[C@@H](CC(C)(C)O)C(=O)N[C@@H](C(C)C)C(=O)N(C)[C@@H](CC(C)C)C(=O)N[C@@H](C)C(=O)N[C@H](C)C(=O)N(C)[C@@H](CC(C)C)C(=O)N(C)[C@@H](CC(C)C)C(=O)N(C)[C@@H](C(C)C)C(=O)N1C` and `CC=CCC(C)C(O)C1C(=O)NC(CC)C(=O)N(C)C(CSCCCN(CC)C(C)C)C(=O)N(C)C(CC(C)(C)O)C(=O)NC(C(C)C)C(=O)N(C)C(CC(C)C)C(=O)NC(C)C(=O)NC(C)C(=O)N(C)C(CC(C)C)C(=O)N(C)C(CC(C)C)C(=O)N(C)C(C(C)C)C(=O)N1C` (stereo not shown) are within 1.5-fold of each other in EC50: 80 nM for the first, 60 nM for the second.

`CC=CCC(C)C(O)C1C(=O)NC(CC)C(=O)N(C)C(SCCCN2CCOCC2)C(=O)N(C)C(C(C)C)C(=O)NC(C(C)C)C(=O)N(C)C(CC(C)C)C(=O)NC(C)C(=O)NC(C)C(=O)N(C)C(CC(C)C)C(=O)N(C)C(CC(C)C)C(=O)N(C)C(C(C)C)C(=O)N1C` [[(S)-(3-(N-Morpholino)propylthio-Sar]-3-[N-MeVal]-4-cyclosporin] (cyclo([X3][Abu][X7][NMeV]V[NMeL]AA[NMeL][NMeL][NMeV]); configuration not given here) and `CC=CCC(C)C(O)C1C(=O)NC(CC)C(=O)N(C)C(CSCCCN2CCOCC2)C(=O)N(C)C(CC(C)(C)OC)C(=O)NC(C(C)C)C(=O)N(C)C(CC(C)C)C(=O)NC(C)C(=O)NC(C)C(=O)N(C)C(CC(C)C)C(=O)N(C)C(CC(C)C)C(=O)N(C)C(C(C)C)C(=O)N1C` (stereo not shown) are within 1.5-fold of each other in EC50: 110 nM for the first, 100 nM for the second.

Compared with `C/C=C/C[C@@H](C)[C@@H](O)[C@H]1C(=O)N[C@@H](CC)C(=O)N(C)[C@H](CSCCN(C)C)C(=O)N(C)[C@@H](CC(C)C)C(=O)N[C@@H](C(C)C)C(=O)N(C)[C@@H](CC(C)C)C(=O)N[C@@H](C)C(=O)N[C@H](C)C(=O)N(C)[C@@H](CC(C)C)C(=O)N(C)[C@@H](CC(C)C)C(=O)N(C)[C@@H](C(C)C)C(=O)N1C` (single isomer, unassigned; isomer b) [[(S)-(2-(N,N-Dimethylamino)ethylthio)methyl-Sar]-3-cyclosporin (isomer B)], `CC=CCC(C)C(O)C1C(=O)NC(CC)C(=O)N(C)C(CSCCCN(C)C)C(=O)N(C)C(CC(C)(C)OC)C(=O)NC(C(C)C)C(=O)N(C)C(CC(C)C)C(=O)NC(C)C(=O)NC(C)C(=O)N(C)C(CC(C)C)C(=O)N(C)C(CC(C)C)C(=O)N(C)C(C(C)C)C(=O)N1C` (stereo not shown) is 1.9-fold lower in EC50: 170 nM for the first, 90 nM for the second.

Compared with `CC=CCC(C)C(O)C1C(=O)NC(CC)C(=O)N(C)C(CSCCCN2CCCCC2)C(=O)N(C)C(CC(C)(C)O)C(=O)NC(C(C)C)C(=O)N(C)C(CC(C)C)C(=O)NC(C)C(=O)NC(C)C(=O)N(C)C(CC(C)C)C(=O)N(C)C(CC(C)C)C(=O)N(C)C(C(C)C)C(=O)N1C` (stereo not shown), `CC=CCC(C)C(O)C1C(=O)NC(CC)C(=O)N(C)C(CSCCCN2CCCC2)C(=O)N(C)C(CC(C)(C)O)C(=O)NC(C(C)C)C(=O)N(C)C(CC(C)C)C(=O)NC(C)C(=O)NC(C)C(=O)N(C)C(CC(C)C)C(=O)N(C)C(CC(C)C)C(=O)N(C)C(C(C)C)C(=O)N1C` (stereo not shown) is 2-fold higher in EC50: 50 nM for the first, 100 nM for the second.

First: CC=CCC(C)C(O)C1C(=O)NC(CC)C(=O)N(C)C(CSCCN2CCOCC2)C(=O)N(C)C(CC(C)(C)OC)C(=O)NC(C(C)C)C(=O)N(C)C(CC(C)C)C(=O)NC(C)C(=O)NC(C)C(=O)N(C)C(CC(C)C)C(=O)N(C)C(CC(C)C)C(=O)N(C)C(C(C)C)C(=O)N1C (stereo not shown)
Second: C/C=C/C[C@@H](C)[C@@H](O)[C@H]1C(=O)N[C@@H](CC)C(=O)N(C)[C@H](COCCCN2CCCC2)C(=O)N(C)[C@@H](CC(C)(C)O)C(=O)N[C@@H](C(C)C)C(=O)N(C)[C@@H](CC(C)C)C(=O)N[C@@H](C)C(=O)N[C@H](C)C(=O)N(C)[C@@H](CC(C)C)C(=O)N(C)[C@@H](CC(C)C)C(=O)N(C)[C@@H](C(C)C)C(=O)N1C
The EC50 of the first is 2-fold lower: 110 nM for the first, 220 nM for the second. The first is the more potent here.

With `C/C=C/C[C@@H](C)[C@@H](O)[C@H]1C(=O)N[C@@H](CC)C(=O)N(C)[C@H](COCCN(CC)CC)C(=O)N(C)[C@@H](CC(C)(C)OC)C(=O)N[C@@H](C(C)C)C(=O)N(C)[C@@H](CC(C)C)C(=O)N[C@@H](C)C(=O)N[C@H](C)C(=O)N(C)[C@@H](CC(C)C)C(=O)N(C)[C@@H](CC(C)C)C(=O)N(C)[C@@H](C(C)C)C(=O)N1C` the EC50 was 60 nM.

Same assay, conditions: Hepatitis C virus, Huh-7, Table 14, HCV replicon luciferase; read-out: Antiviral activity EC50

For `C/C=C/C[C@@H](C)[C@@H](O)[C@H]1C(=O)N[C@@H](CC)C(=O)N(C)[C@H](CSCCN(CC)CC)C(=O)N(C)[C@@H](CC(C)(C)OCSC)C(=O)N[C@@H](C(C)C)C(=O)N(C)[C@@H](CC(C)C)C(=O)N[C@@H](C)C(=O)N[C@H](C)C(=O)N(C)[C@@H](CC(C)C)C(=O)N(C)[C@@H](CC(C)C)C(=O)N(C)[C@@H](C(C)C)C(=O)N1C` (cyclo(A[dA][NMeL][NMeL][NMeV][MeBmt][Abu][dNMeC](Et2NCH2CH2)[X15]V[NMeL])), the EC50 was 20 nM.

Same assay, conditions: Table 14, HCV replicon luciferase; read-out: Antiviral activity EC50

`C/C=C/C[C@@H](C)[C@@H](O)[C@H]1C(=O)N[C@@H](CC)C(=O)N(C)[C@H](COCCCN2CCCC2)C(=O)N(C)[C@@H](CC(C)(C)O)C(=O)N[C@@H](C(C)C)C(=O)N(C)[C@@H](CC(C)C)C(=O)N[C@@H](C)C(=O)N[C@H](C)C(=O)N(C)[C@@H](CC(C)C)C(=O)N(C)[C@@H](CC(C)C)C(=O)N(C)[C@@H](C(C)C)C(=O)N1C` was tested, and the EC50 was 120 nM.
